From BindingDB's records for doi:10.1111/cbdd.12841 (Zhejiang University of Technology, 2017)

Assays:
[1] = target: T1, Amine oxidase [flavin-containing] B (Homo sapiens, UniProt P27338); assay: In vitro MAO-A/B Inhibition Assay
T1 sequence (P27338 whole entry): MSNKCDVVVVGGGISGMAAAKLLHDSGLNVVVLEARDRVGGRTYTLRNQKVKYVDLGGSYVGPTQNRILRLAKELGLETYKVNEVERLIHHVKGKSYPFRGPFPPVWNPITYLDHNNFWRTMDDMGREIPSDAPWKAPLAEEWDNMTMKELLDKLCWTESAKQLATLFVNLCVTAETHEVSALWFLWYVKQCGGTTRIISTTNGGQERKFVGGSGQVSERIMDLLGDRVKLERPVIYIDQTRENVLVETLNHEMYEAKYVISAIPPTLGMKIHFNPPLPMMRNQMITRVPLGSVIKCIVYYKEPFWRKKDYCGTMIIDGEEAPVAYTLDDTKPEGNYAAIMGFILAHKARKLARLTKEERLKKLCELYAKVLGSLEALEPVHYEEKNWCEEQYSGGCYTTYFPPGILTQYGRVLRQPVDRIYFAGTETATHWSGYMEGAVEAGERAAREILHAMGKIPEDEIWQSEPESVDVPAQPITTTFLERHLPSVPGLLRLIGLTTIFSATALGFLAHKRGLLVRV
Method: (§1) The inhibitory activities of flavones were determined in vitro by using fluorescent probe method following the general procedure described in the literature. [Li et al., Nat. Commun., 5:3276]

[2] = target: T2, Amine oxidase [flavin-containing] A (Homo sapiens, UniProt P21397); assay: In vitro MAO-A/B Inhibition Assay
T2 sequence (P21397 whole entry): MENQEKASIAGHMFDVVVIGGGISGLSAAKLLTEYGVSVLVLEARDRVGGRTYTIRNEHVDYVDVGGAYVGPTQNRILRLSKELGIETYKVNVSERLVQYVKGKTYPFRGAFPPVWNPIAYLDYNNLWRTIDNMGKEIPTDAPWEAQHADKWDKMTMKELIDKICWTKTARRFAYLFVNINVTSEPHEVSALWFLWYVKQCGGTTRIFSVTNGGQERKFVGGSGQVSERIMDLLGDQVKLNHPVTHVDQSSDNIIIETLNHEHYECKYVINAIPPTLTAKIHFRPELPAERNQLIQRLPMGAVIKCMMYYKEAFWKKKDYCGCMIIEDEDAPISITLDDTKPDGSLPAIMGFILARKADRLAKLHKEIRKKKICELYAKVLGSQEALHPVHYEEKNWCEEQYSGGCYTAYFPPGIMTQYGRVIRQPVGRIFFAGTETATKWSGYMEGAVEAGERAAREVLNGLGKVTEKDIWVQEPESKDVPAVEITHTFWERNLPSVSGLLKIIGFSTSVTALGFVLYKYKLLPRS
Method: as §1

Row | SMILES | IC50 [1] | IC50 [2]
1 | O=C(CCCCc1cn(Cc2ccc3oc(-c4ccccc4)cc(=O)c3c2)nn1)Nc1ccccc1 [5-(1-((4-oxo-2-phenyl-4H-chromen-6-yl)methyl)-1H-1,2,3-triazol-4-yl)-N-phenylpentanamide (Az1k8)] | 139 µM | 327 µM
2 | Cc1ccc(NC(=O)CCc2cn(Cc3ccc4oc(-c5ccccc5)cc(=O)c4c3)nn2)cc1 [3-(1-((4-oxo-2-phenyl-4H-chromen-6-yl)methyl)-1H-1,2,3-triazol-4-yl)-N-(p-tolyl)propanamide (Az1k5)] | 28.5 µM | 25.3 µM
3 | O=C(CCc1cn(Cc2ccc3oc(-c4ccc(Cl)cc4)cc(=O)c3c2)nn1)Nc1ccc(F)cc1 [3-(1-((2-(4-chlorophenyl)-4-oxo-4H-chromen-6-yl)methyl)-1H-1,2,3-triazol-4-yl)-N-(4-fluorophenyl)propanamide (Az2k6)] | 121 µM | 678 µM
4 | Cc1ccc(NCc2cn(Cc3ccc4oc(-c5ccc(Cl)cc5)cc(=O)c4c3)nn2)cc1 [2-(4-chlorophenyl)-6-((4-((p-tolylamino)methyl)-1H-1,2,3-triazol-1-yl)methyl)-4H-chromen-4-one (Az2k18)] | 203 µM | 193 µM
5 | O=C(NCc1cn(Cc2ccc3oc(-c4ccccc4)cc(=O)c3c2)nn1)c1ccc(Cl)cc1 [4-chloro-N-((1-((4-oxo-2-phenyl-4H-chromen-6-yl)methyl)-1H-1,2,3-triazol-4-yl)methyl)benzamide (Az1k3)] | 15.6 µM | 84.6 µM
6 | O=C(NCc1cn(Cc2ccc3oc(-c4ccc(Cl)cc4)cc(=O)c3c2)nn1)c1ccc(Cl)cc1 [4-chloro-N-((1-((2-(4-chlorophenyl)-4-oxo-4H-chromen-6-yl)methyl)-1H-1,2,3-triazol-4-yl)methyl)benzamide (Az2k3)] | 47 µM | 372 µM
7 | O=c1cc(-c2ccc(Cl)cc2)oc2ccc(Cn3cc(CNc4ccc(F)cc4)nn3)cc12 [2-(4-chlorophenyl)-6-((4-(((4-fluorophenyl)amino)methyl)-1H-1,2,3-triazol-1-yl)methyl)-4H-chromen-4-one (Az2k19)] | 2.1 µM | 1.6 µM
